Values quoted from earlier work, collected in patent publication US20250352536A1, “NEURORESTORATION COMPOSITIONS IMPLEMENTING MULTIPLE NEUROPLASTICITY INDUCING MECHANISMS OF ACTION” (Neuro-Innovators, Inc., priority 2022, published 2025).

Test system: recurrent stroke
Settings: compared with aspirin, previous clinical trials

hemorrhagic events: fewer hemorrhagic events
SMILES: O=C1CCc2cc(OCCCCc3nnnn3C3CCCCC3)ccc2N1 [cilostazol, Cilostazol]
incidence of recurrent stroke: significantly reduce the incidence of recurrent stroke
